ChEMBL document CHEMBL1124708, “Glycolipids as host resistance stimulators” (1990)
Several values for one entry are separate records, joined by “and”; a condition that tells them apart may be missing. Equal values may be shown once.

Columns and labels:
[1] = system: Pseudomonas aeruginosa; test: Protective index against Pseudomonas aeruginosa after 40 mg/kg subcutaneous administration pretreated 250 mg/kg cytoxan intraperitoneal on day -4.; assay type: functional
[2] = system: Mus musculus; test: protective index of Pseudomonas aeruginosa after 40 mg/kg im administration pretreated 250 mg/kg cytoxan ip on day -1; assay type: functional
[3] = system: Mus musculus; test: Protective index of Pseudomonas aeruginosa after 40 mg/kg sc administration pretreated 250 mg/kg cytoxan ip on day -7; assay type: functional
[4] = system: Mus musculus; test: Protective index of Pseudomonas aeruginosa after 40 mg/kg im administration pretreated 250 mg/kg cytoxan ip on day -1; assay type: functional
[5] = system: Mus musculus; test: Protective index of Pseudomonas aeruginosa after 40 mg/kg im administration pretreated 250 mg/kg cytoxan ip on day -2; assay type: functional
[6] = (§1) Log value of the protective index was calculated; assay type: functional
[7] = system: Mus musculus; test: Protective index of Pseudomonas aeruginosa after 4 mg/kg sc administration pretreated 250 mg/kg cytoxan ip; assay type: functional
[8] = system: Pseudomonas aeruginosa; test: (§2) No of CFU was determined that cause 50% lethality against Pseudomonas aeruginosa after 40 mg/kg sc administration; assay type: functional; conditions: route subcutaneous
[9] = organism: Mus musculus; test: as §1; assay type: functional, organism-based
[10] = system: Mus musculus; test: No of CFU was determined that cause 50% lethality against Pseudomonas aeruginosa after 40 mg/kg ip administration; assay type: functional; conditions: route intraperitoneal
[11] = system: Mus musculus; test: Protective index of Pseudomonas aeruginosa after 40 mg/kg ip administration pretreated 250 mg/kg cytoxan ip on day -4.; assay type: functional
[12] = system: Mus musculus; test: Protective index of Pseudomonas aeruginosa after 40 mg/kg sc administration pretreated 250 mg/kg cytoxan ip on day -4.; assay type: functional
[13] = as §1
[14] = system: Mus musculus; test: as §2; assay type: functional; conditions: route subcutaneous
[15] = system: Mus musculus; test: Protective index Pseudomonas aeruginosa after 40 mg/kg sc administration pretreated 250 mg/kg cytoxan ip on day -4.; assay type: functional

Q: With `CC(C)CCCC(C)C1CCC2C3CC=C4CC(OCCCCCCSC5OC(CN)C(O)C(O)C5O)CCC4(C)C3CCC12C` (configuration not stated) as the molecule, how does the PI [1] read?
A: 0.98

Q: With `CC(C)CCCC(C)[C@H]1CC[C@H]2C3CC=C4C[C@@H](OCCCCCCS[C@@H]5O[C@@H](CO)[C@@H](O)[C@H](O)[C@H]5O)CC[C@]4(C)[C@H]3CC[C@]12C` (some centres not stated) as the molecule, how does the PI [2] read?
A: 2.29

Q: And the PI [3]?
A: 4.81

Q: What about the PI [4] of the same molecule?
A: 2.29

Q: What about the PI [5] of the same molecule?
A: 9.52

Q: And the Log PI [6]?
A: 4.02

Q: What about the PI [7] of the same molecule?
A: 2.59

Q: With `CC(=O)N[C@H]1C(O)O[C@@H](COC(=O)[C@H]2CC[C@@]3(C)C(=CC[C@H]4[C@@H]5CC[C@H]([C@H](C)CCCC(C)C)[C@@]5(C)CC[C@@H]43)C2)[C@@H](O)[C@@H]1O[C@@H](C)C(=O)N[C@@H](C)C(=O)N[C@@H](CCC(=O)O)C(N)=O` (some centres not stated) as the molecule, how does the PI [1] read?
A: 1000

Q: What about the “No. of Colony forming Units” value [8] of the same molecule?
A: 16000

Q: Which Log PI [6] does the source give for `CC(C)CCCC(C)[C@H]1CC[C@H]2C3CC=C4C[C@@H](OCCCCCCS[C@@H]5O[C@@H](CO)[C@@H](O)[C@H](O)[C@@H]5O)CC[C@]4(C)[C@H]3CC[C@]12C` (stereo in doubt; form 1) [listing 1 of 2 here] here?
A: 0

Q: With `CC(C)CCCC(C)C1CCC2C3CC=C4CC(OCCCCCCCCSC5OC(CO)C(O)C(O)C5O)CCC4(C)C3CCC12C` (configuration not stated) as the molecule, how does the PI [1] read?
A: 0.58

Q: With `CC(=O)NC1C(SCCCCCCOC2CCC3(C)C(=CCC4C3CCC3(C)C(C(C)CCCC(C)C)CCC43)C2)OC(CO)C(O)C1O` (stereo in doubt; form 1) [listing 1 of 2 here] as the molecule, how does the Log PI [9] read?
A: 0

Q: Which “No. of Colony forming Units” value ([8]; 40 mg/kg) does the source give for `CC(=O)NC1C(SCCCCCCOC2CCC3(C)C(=CCC4C3CCC3(C)C(C(C)CCCC(C)C)CCC43)C2)OC(CO)C(O)C1O` (stereo in doubt; form 2) [listing 1 of 2 here] here?
A: 56.7 and 75

Q: Which Log PI [6] does the source give for `CC(C)CCCC(C)[C@H]1CC[C@H]2C3CC=C4C[C@@H](OCCCCCCS[C@H]5O[C@@H](CO)[C@@H](O)[C@H](O)[C@H]5O)CC[C@]4(C)[C@H]3CC[C@]12C` (some centres not stated) here?
A: 1.53

Q: With `CC(C)CCCC(C)[C@H]1CC[C@H]2C3CC=C4C[C@@H](OCCCCCCS[C@@H]5O[C@@H](CO)[C@@H](O)[C@H](O)[C@@H]5O)CC[C@]4(C)[C@H]3CC[C@]12C` (stereo in doubt; form 1) [listing 2 of 2 here] as the molecule, how does the PI [1] read?
A: 0.53 and 0.94

Q: And the “No. of Colony forming Units” value ([8]; 40 mg/kg)?
A: 56.7 and 47 and 101

Q: And the “No. of Colony forming Units” value [10]?
A: 76

Q: And the PI [11]?
A: 4.75

Q: What about the PI [12] of the same molecule?
A: 2.94

Q: Which Log PI [9] does the source give for `CC(C)CCCC(C)[C@H]1CC[C@H]2C3CC=C4C[C@@H](OCCCCCCS[C@@H]5O[C@@H](CO)[C@@H](O)[C@H](O)[C@@H]5O)CC[C@]4(C)[C@H]3CC[C@]12C` (stereo in doubt; form 2) here?
A: 0

Q: What about the Log PI [13] of the same molecule?
A: 0

Q: With `CC(C)CCCC(C)C1CCC2C3CC=C4CC(OCCCCCCSC5OCC(O)C(O)C5O)CCC4(C)C3CCC12C` (configuration not stated) as the molecule, how does the PI [1] read?
A: 1.01

Q: What does the source list for `CC(=O)N[C@@H]1C(O)O[C@@H](CO)[C@@H](O)[C@@H]1O[C@@H](C)C(=O)N[C@@H](C)C(=O)N[C@@H](CCC(=O)O)C(N)=O` (some centres not stated)?
A: PI [14]: 1.31; PI [15]: 1.87 and 1.31; Log PI [6]: 0.27

Q: With `CC(C)CCC[C@@H](C)[C@H]1CC[C@H]2[C@@H]3CC=C4C[C@@H](OCCCCCCS[C@@H]5O[C@@H](CO)[C@@H](O[C@@H]6O[C@@H](CO)[C@H](O)[C@H](O)[C@@H]6O)[C@H](O)[C@@H]5O)CC[C@]4(C)[C@H]3CC[C@]12C` as the molecule, how does the PI [1] read?
A: 3.5

Q: For `CC(C)CCCC(C)C1CCC2C3CC=C4CC(OCCCCSC5OC(CO)C(O)C(O)C5O)CCC4(C)C3CCC12C` (configuration not stated), which PI [1] is on record?
A: 0.84

Q: For `COCC1OC(SCCCCCCOC2CCC3(C)C(=CCC4C3CCC3(C)C(C(C)CCCC(C)C)CCC43)C2)C(O)C(O)C1O` (configuration not stated), which PI [1] is on record?
A: 0.53

Q: For `CC(=O)NC1C(SCCCCCCOC2CCC3(C)C(=CCC4C3CCC3(C)C(C(C)CCCC(C)C)CCC43)C2)OC(CO)C(O)C1O` (stereo in doubt; form 2) [listing 2 of 2 here], which Log PI [6] is on record?
A: 0

Q: Which results are given for `CC(=O)NC1C(SCCCCCCOC2CCC3(C)C(=CCC4C3CCC3(C)C(C(C)CCCC(C)C)CCC43)C2)OC(CO)C(O)C1O` (stereo in doubt; form 1) [listing 2 of 2 here]?
A: PI [1]: 0.53 and 0.7; No. of Colony forming Units ([8]; 40 mg/kg): 5.67 and 7.5

Q: Which PI [1] does the source give for `CC(C)CCOC(=O)C1CCC2C3CC=C4CC(OCCCCCCSC5OC(CO)C(O)C(O)C5O)CCC4(C)C3CCC12C` (configuration not stated) here?
A: 1.01
